We go through 10 compounds from patent US5099030A, “Novel compounds, pharmaceutical compositions, and methods for treating inflammation and pain” (The Procter & Gamble Company, priority 1991, dated 1992).

A short description of data set [1]: Rodent Hot Plate Test. It counts as in vivo, male Sprague-Dawley rats. The protocol: The degree of thermal analgesia obtained is determined using the "rodent hot plate test" (RHP). The RHP system is designed to detect and evaluate agents which elevate the threshold for the perception of pain. Classically, this method has been utilized primarily to evaluate opioid (narcotic) analgesic agents, such as morphine.
Male Sprague-Dawley rats (Charles River Breeding Laboratories Inc.) weighing between 100 and 125 grams upon arrival are used to evaluate the compounds of the present invention. Animals are double housed in stainless steel cages, and are fed Purina Rat Chow and tap water ad libitum. The animals are food fasted the afternoon proceeding the day of the study, and food is returned 5 hours post-treatment. Animals not being dosed by oral gavage are not fasted.
The apparatus for evaluating analgesic activity consists of an insulated copper hot plate whose surface is maintained at 55°±0.5° C. by a circulating water bath. A bottomless glass container (12" (30 cm) tall by 8" (20 cm) diameter) is used to restrict the animal to a defined area of the hot plate. After dosing, the animal is placed through the top opening of the container, and a stop watch is started when the animal makes contact with the plate. The stop-watch is stopped upon either of the following visually observed end points: (1) licking or biting of either hind paw, or (2) jumping. If the jump is not successful but both hind paws leave the surface of the plate in an effort to jump, this is considered jumping. The stop-watch is stopped at the end point and the animal is immediately removed from the hot plate. The time (latency) between the initial contact of the animal on the hot plate and the endpoint is recorded.
Prior to dosing, animals are tested on the hot plate. This is denoted as pretest or base line latency. Usually, the animals are dosed by oral gavage, using a 1 cubic cm glass syringe connected to a size 8 french catheter. The dose volume is 5 ml/kg. On occasion, the animals are dosed by either subcutaneous administration or intravenous injection. Using the subcutaneous administration, a 1 ml tuberculin syringe is connected to a 25 gauge 5/8 inch needle, and injected under the skin in the neck or back region. For intravenous dosing, a 1 ml tuberculin syringe is connected to a 25 gauge 3/4 inch winged infusion set, and injected into the tail vein. The dose volume for subcutaneous and intravenous routes is 1 ml/kg. The latency times are typically recorded at 1.5, 3, 5, and 24 hours post-treatment. Much shorter times are recorded for an intravenous administration.
(Hot-plate and tail-flick tests time the reaction to a heat stimulus.)

A short description of data set [2]: Oral soft gelatin capsules in human (Example VIII). The format is in vivo. The note with it: two oral capsules, 225 mg of composition each, 60 kg human. The protocol: (§1) A composition for oral administration is prepared by combining the following ingredients:
The octadecenamide is dissolved in the sesame oil with the aid of sonication and is packaged in soft gelatin capsules using methods known in the art.

Data set [3] in a line: Oral syrup in human (Example IX). The format is in vivo. The note with it: one teaspoon of syrup, 70 kg adult human. How it is done:
as §1
The above ingredients are combined to produce a syrup and are packaged under sterile conditions in 6 oz. bottles.

Data set [4] is described as follows: Topical application to human forearm (Example X). The note with it: for local analgesic effect: replacing N-((4-(2-methyl-2-aminopropoxy)-3-methoxyphenyl)-methyl)-9Z-octadecenamide. The format is in vivo. How it is done:
A composition for topical administration is prepared by combining the following ingredients:
The octadecenamide is dissolved in a solution containing the other ingredients. Application of 0.4 ml of the resulting liquid to a 80 cm^2 portion of the forearm of a 60 kg human produces local analgesia which lasts approximately two days.

The nature of data set [5]: Mouse Abdominal Constriction Assay (phenylquinone writhing). The format is in vivo, male CF-1 mice. The note with it: for % Analgesia (3 hrs post-dose): 3 hrs post-dose (time of peak analgesic effect). The protocol:
Compounds of the present invention are tested for analgesic activity using the mouse abdominal constriction assay. This assay is described in Hendershot and Forsaith, J. Pharmacol. Exo.
Male CF-1 mice (Charles River Breeding Laboratories, Inc.), weighing approximately 20 grams and food fasted overnight, are used in these assays. Test compounds are prepared for oral (p.o.) or subcutaneous (s.c.) administration, with compounds of the present invention being prepared in acidified (1N acetic acid) distilled deionized water so that the appropriate dose is given in 0.2 mls to a 20 gram mouse.
Ten minutes after the i.p. injection of phenylquinone, the number of full body writhes are counted for the succeeding ten minutes. Percent analgesia in this assay is calculated as follows: [formula]
In general terms: Writhing tests count abdominal constrictions after an irritant is injected.

Where [6] appears, read: 0.4 ml to 80 cm^2 of forearm, 60 kg human.

In the case of `COc1ccc2c3c1O[C@H]1[C@@H](O)C=C[C@H]4[C@@H](C2)N(C)CC[C@@]341` [Codeine Phosphate, reference compound], the “Mean Latency Times” value is 8.7 s in data set [1] (50 mg/kg oral, 1 hr post dose); 6.4 s in data set [1] (50 mg/kg oral, 2 hr post dose); 6.5 s in data set [1] (50 mg/kg oral, 4 hr post dose); 8.5 s in data set [1] (100 mg/kg oral, 1 hr post dose); 8.9 s in data set [1] (100 mg/kg oral, 2 hr post dose); 6.0 s in data set [1] (100 mg/kg oral, 4 hr post dose). Moreover, the “Mean Latency Times” value was 16.9 s in data set [1] (200 mg/kg oral, 1 hr post dose); 21.0 s in data set [1] (200 mg/kg oral, 2 hr post dose); 11.7 s in data set [1] (200 mg/kg oral, 4 hr post dose); 26.5 s in data set [1] (400 mg/kg oral, 1 hr post dose); 28.4 s in data set [1] (400 mg/kg oral, 2 hr post dose); 24.6 s in data set [1] (400 mg/kg oral, 4 hr post dose).

In the case of `CCCCCCCC/C=C\CCCCCCCC(=O)NCc1ccc(OC[C@@H](N)C(C)C)c(OC)c1` [N-((4-(2(S)-amino-3-methylbutoxy)-3-methoxyphenyl)methyl)-9Z-octadecenamide], in data set [2], the analgesia result is listed as “increased analgesic effect” and the reduction of inflammation result was “substantially similar reduction of inflammation”. Also, in data set [3], the analgesia result was “substantially similar reduction of inflammation and analgesic effect”; the reduction of inflammation entry is given as “substantially similar reduction of inflammation”. Further, the local analgesic effect result in data set [4] is “substantially similar local analgesic effect”.

With `CCCCCCCC/C=C\CCCCCCCC(=O)NCc1ccc(OCC(N)C(=O)O)c(OC)c1` (centres unmarked) [N-((4-(2-amino-2-carboxyethoxy)-3-methoxyphenyl)-methyl)-9Z-octadecenamide], in data set [2], the analgesia result is “increased analgesic effect” and the reduction of inflammation result was “substantially similar reduction of inflammation”. Besides, in data set [3], the analgesia entry is “substantially similar reduction of inflammation and analgesic effect”; the reduction of inflammation entry is on record as “substantially similar reduction of inflammation”. Besides, the local analgesic effect entry in data set [4] is given as “substantially similar local analgesic effect”.

For the compound `CCCCCCCC/C=C\CCCCCCCC(=O)NCc1ccc(OCC(N)CO)c(OC)c1` (centres unmarked) [N-((4-(2-amino-3-hydroxypropoxy)-3-methoxyphenyl)-methyl)-9Z-octadecenamide], in data set [2], the analgesia result is recorded as “increased analgesic effect” and the reduction of inflammation result is on record as “substantially similar reduction of inflammation”. In data set [3], the analgesia entry was “substantially similar reduction of inflammation and analgesic effect”; the reduction of inflammation entry is given as “substantially similar reduction of inflammation”. Also, the local analgesic effect result in data set [4] is listed as “substantially similar local analgesic effect”.

`CCCCCCCCC(=O)NCc1ccc(OCCN)c(OC)c1` [N-((4-(2-aminoethoxy)-3-methoxyphenyl)-methyl)-nonanamide]: the “Mean Latency Times” value in data set [1] (50 mg/kg oral, 3 hr post dose) is 7.5 s; in data set [1] (50 mg/kg oral, 5 hr post dose), 7.2 s; in data set [1] (50 mg/kg oral, 24 hr post dose), 8.1 s; in data set [1] (100 mg/kg oral, 3 hr post dose), 9.9 s; in data set [1] (100 mg/kg oral, 5 hr post dose), 10.2 s; in data set [1] (100 mg/kg oral, 24 hr post dose), 12.3 s. Moreover, the “Mean Latency Times” value worked out at 10.8 s in data set [1] (200 mg/kg oral, 3 hr post dose); 16.4 s in data set [1] (200 mg/kg oral, 5 hr post dose); 22.0 s in data set [1] (200 mg/kg oral, 24 hr post dose); 14.1 s in data set [1] (300 mg/kg oral, 3 hr post dose); 14.6 s in data set [1] (300 mg/kg oral, 5 hr post dose); 20.3 s in data set [1] (300 mg/kg oral, 24 hr post dose). The analgesia entry was “increased analgesic effect” in data set [2]; “substantially similar reduction of inflammation and analgesic effect” in data set [3]. Also, the reduction of inflammation result in data set [2] and in data set [3] was “substantially similar reduction of inflammation” throughout.

In the case of `CCCCCCCC/C=C\CCCCCCCC(=O)NCc1ccc(OCC(C)(C)N)c(OC)c1` [N-((4-(2-methyl-2-aminopropoxy)-3-methoxyphenyl)-methyl)-9Z-octadecenamide], in data set [2], the analgesia entry is on record as “increased analgesic effect” and the reduction of inflammation result is “substantially similar reduction of inflammation”. For the same compound, in data set [4] (setting [6]), the “duration of local analgesia” value is listed as “approximately two” and the skin irritation entry is “Little or no skin irritation”.

Take `CCCCCCCCC(=O)NCc1ccc(OCC(C)(C)N)c(OC)c1` [N-((4-(2-methyl-2-aminopropoxy)-3-methoxyphenyl)-methyl)-nonanamide]: the local analgesic effect result in data set [4] was “substantially similar local analgesic effect”.

Turning to `CCCCCCCC/C=C\CCCCCCCC(=O)NCc1ccc(OCCC(C)COCC(C)(C)N)c(OC)c1` (centres unmarked) [N-((4-(2-methyl-2-aminopropoxy)-3-methylbutoxy)-3-methoxyphenyl)methyl)-9Z-octadecenamide], in data set [3], the analgesia result is “substantially similar reduction of inflammation and analgesic effect”; the reduction of inflammation entry is listed as “substantially similar reduction of inflammation”.

On to `CCCCCCCC/C=C\CCCCCCCC(=O)NCc1ccc(O)c(OC)c1` [N-Vanillyloleamide, N-vanillyloleamide, reference compound], for which the “% Analgesia (3 hrs post-dose)” value is 35.4% in data set [5] (0.75 mg/kg subcutaneous); 62.8% in data set [5] (1.5 mg/kg subcutaneous); 76.1% in data set [5] (2.25 mg/kg subcutaneous); 36% in data set [5] (100 mg/kg oral); 60% in data set [5] (200 mg/kg oral); 79% in data set [5] (400 mg/kg oral). Also, the “time of peak analgesic effect” value in data set [5] (mouse, in vivo) turned out to be 3 hours post-dose.

Consider `CCCCCCCCNC(=O)Cc1ccc(OCCN)c(OC)c1` [N-octanyl-4-(2-aminoethoxy)-3-methoxyphenylacetamide], for which the analgesia entry in data set [2] is “increased analgesic effect”; in data set [3], “substantially similar reduction of inflammation and analgesic effect”. Besides, the reduction of inflammation entry in data set [2] and in data set [3] was “substantially similar reduction of inflammation” each time. The local analgesic effect result in data set [4] is given as “substantially similar local analgesic effect”.
